Measurements taken from patent publication US7332495B2 (priority 2002, dated 2008).
Where two headings read alike, the source gives them in different places.

Experiments:
[1] = tested on: rat; assay: animal or person; conditions: for responders at 20 mg/kg: ip
Protocol: Using 55° C. hot plate pain threshold detector (available from Ninghai Baishi Electronic Medical Instrument Co., Zheijiang, China) the threshold change before and after administration of a pharmaceutical composition of the present invention is tested. […] hind paw was scrubbed with alcohol cotton ball before the experiment. The regular pain threshold was tested twice for each rat, the induced hind paw licking time being recorded as the pain threshold. Measurements were made at 20-30 minute intervals. Only rats with stable pain reaction were used in the pharmaceutical test.
(§1) Two species of animals (mice and rats) and four types of pain testing models (i.p. 0.7% acetic acid, s.c. 5% formalin, hot plate 55° C., focused radiant heat) were used.

[2] = tested on: rat; assay: Rat tail flick model (focused radiant heat); format: in vivo
Protocol: A 8.75 mm-projecting lamp (12 v, 50 w) was used to give out focused radiant heat. The terminal 3 cm of the tail is exposed to the heat. The intensity of the focused radiant heat is regulated by a transformer to ensure that the time required to elicit a tail flick response is within 3-5 seconds. The rat's pain threshold is pre-tested for 2-3 times; and only animals with stable reactions were used in the pharmaceutical test. The test substance is taken orally 20 mg/kg. The number of rats whose increase in time for eliciting a tail flick response is by 100% or more at the peak of the drug action (30-45 minutes after administration) is used to calculate analgesic effect.
as §1

[3] = tested on: Mice; assay: Mice 55° C. hot plate; format: in vivo; conditions: Mus musculus, po, read-out: Analgesia ED50
Protocol: as §1

[4] = tested on: rat; assay: Rat 5% formalin paw s.c.; format: in vivo; conditions: p.o., read-out: Analgesia ED50
Protocol: as §1

[5] = tested on: NMDA receptor; assay: Binding test with NMDA receptor; conditions: 0.1 μM, 1 μM and 10 μM
[6] = tested on: Mice; format: in vivo; conditions: 6 days training
Protocol: 30 mice were divided into 3 groups (10 for each group, ? fifty-fifty): IV-12-1 (1 mg/kg), IV-12-2 (5 mg/kg) and NS. Half of the mice in each group were administrated (s.c.) in the morning and 30 minutes later put into a white box (with medicine), and trained for 30 minutes; Saline is administrated (s.c.) in the afternoon and 30 minutes later put into a black box (without medicine), and trained for 30 minutes. The other half of the group are given saline in the morning and IV-12 in the afternoon, other procedures are the same as above.
The two training periods were at least 6-hour apart and training was continuous for 6 days. On the 7th day, the staying time was tested in both of the boxes.

[7] = tested on: rats; assay: Spontaneous withdrawal tests (body weight); format: in vivo
[8] = IV-12-1 (75 mg/kg), 12 h after withdrawal
[9] = IV-12-1 (75 mg/kg), 24 h after withdrawal
[10] = IV-12-1 (75 mg/kg), 42 h after withdrawal
[11] = IV-12-1 (75 mg/kg), 48 h after withdrawal
[12] = IV-12-1 (75 mg/kg), 66 h after withdrawal
[13] = IV-12-1 (75 mg/kg), 84 h after withdrawal
[14] = IV-12-1 (75 mg/kg), 90 h after withdrawal
[15] = IV-12-1 (75 mg/kg), 96 h after withdrawal
[16] = IV-12-1 (75 mg/kg), 108 h after withdrawal
[17] = IV-12-1 (75 mg/kg), 114 h after withdrawal
[18] = IV-12-1 (75 mg/kg), 120 h after withdrawal
[19] = IV-12-1 (75 mg/kg), 132 h after withdrawal
[20] = IV-12-1 (75 mg/kg), 138 h after withdrawal
[21] = IV-12-1 (75 mg/kg), 144 h after withdrawal
[22] = IV-12-1 (75 mg/kg), 156 h after withdrawal
[23] = IV-12-1 (75 mg/kg), 162 h after withdrawal
[24] = IV-12-1 (75 mg/kg), 168 h after withdrawal
[25] = IV-12-2 (75 mg/kg), 12 h after withdrawal
[26] = IV-12-2 (75 mg/kg), 18 h after withdrawal
[27] = IV-12-2 (75 mg/kg), 24 h after withdrawal
[28] = IV-12-2 (75 mg/kg), 36 h after withdrawal
[29] = IV-12-2 (75 mg/kg), 42 h after withdrawal
[30] = IV-12-2 (75 mg/kg), 48 h after withdrawal
[31] = IV-12-2 (75 mg/kg), 66 h after withdrawal
[32] = IV-12-2 (75 mg/kg), 72 h after withdrawal
[33] = IV-12-2 (75 mg/kg), 84 h after withdrawal
[34] = IV-12-2 (75 mg/kg), 90 h after withdrawal
[35] = IV-12-2 (75 mg/kg), 96 h after withdrawal
[36] = IV-12-2 (75 mg/kg), 108 h after withdrawal
[37] = IV-12-2 (75 mg/kg), 120 h after withdrawal
[38] = IV-12-2 (75 mg/kg), 138 h after withdrawal
[39] = IV-12-2 (75 mg/kg), 144 h after withdrawal
[40] = IV-12-2 (75 mg/kg), 156 h after withdrawal
[41] = IV-12-2 (75 mg/kg), 162 h after withdrawal
[42] = IV-12-2 (75 mg/kg), 168 h after withdrawal

## Nc1ccc(CN2CCN(CC(=O)c3ccccc3)CC2)cc1 [IV-12, N^1-(4-aminobenzyl)-N^4-phenacyl piperazine]
[1]; 20 mg/kg, Table 5 summary
  Increase (hot plate) (%): 100%
[1]; Rattus norvegicus, read-out: Analgesic ratio (Increase by 100%)
  responders at 20 mg/kg: 100%
[1]; Rattus norvegicus, read-out: Analgesic ratio (More than 60 seconds)
  responders at 20 mg/kg: 80%
[1]; Rattus norvegicus, po, read-out: Analgesia ED50
  ED50: 52.4 mg/kg
[2]; 20 mg/kg, Table 5 summary
  Increase (tail flick) (%): 34%
[2]; Rattus norvegicus, po, orally 20 mg/kg, read-out: increase (%) of tail flick time
  change in vivo at 20 mg/kg: 34%
[2]; orally 20 mg/kg, 30-45 minutes after administration
  After (s) tail flick time: 10.05 s
[3]
  ED50: 20.6 mg/kg
[4]
  ED50: 102 mg/kg
[5]
  Antagonism on Glu site of NMDA receptor: no antagonism
  Antagonism on Gly site of NMDA receptor: no antagonism
  Antagonism on ion-channel site of NMDA receptor: no antagonism
[6]; 1 mg/kg s.c.
  Staying time in box with medicine: 496.4 ± 73.4 s
[6]; 5 mg/kg s.c.
  Staying time in box with medicine: 452.8 ± 119.5 s
[7]; IV-12-1 75 mg/kg, ♀, 18 h after withdrawal
  Weight after withdrawal compared with weight one day before withdrawal: 1.01 ± 0.03
[7]; IV-12-1 75 mg/kg, ♀, 42 h after withdrawal
  Weight after withdrawal compared with weight one day before withdrawal: 1.02 ± 0.05
[7]; IV-12-1 75 mg/kg, ♀, 66 h after withdrawal
  Weight after withdrawal compared with weight one day before withdrawal: 1.03 ± 0.04
[7]; IV-12-1 75 mg/kg, ♀, 90 h after withdrawal
  Weight after withdrawal compared with weight one day before withdrawal: 1.04 ± 0.06
[7]; IV-12-1 75 mg/kg, ♀, 114 h after withdrawal
  Weight after withdrawal compared with weight one day before withdrawal: 1.06 ± 0.06
[7]; IV-12-1 75 mg/kg, ♀, 162 h after withdrawal
  Weight after withdrawal compared with weight one day before withdrawal: 1.08 ± 0.07
[7]; IV-12-1 75 mg/kg, ♂, 18 h after withdrawal
  Weight after withdrawal compared with weight one day before withdrawal: 1.01 ± 0.03
[7]; IV-12-1 75 mg/kg, ♂, 42 h after withdrawal
  Weight after withdrawal compared with weight one day before withdrawal: 1.02 ± 0.03
[7]; IV-12-1 75 mg/kg, ♂, 66 h after withdrawal
  Weight after withdrawal compared with weight one day before withdrawal: 1.04 ± 0.04
[7]; IV-12-1 75 mg/kg, ♂, 90 h after withdrawal
  Weight after withdrawal compared with weight one day before withdrawal: 1.06 ± 0.05
[7]; IV-12-1 75 mg/kg, ♂, 114 h after withdrawal
  Weight after withdrawal compared with weight one day before withdrawal: 1.08 ± 0.05
[7]; IV-12-1 75 mg/kg, ♂, 138 h after withdrawal
  Weight after withdrawal compared with weight one day before withdrawal: 1.11 ± 0.06
[7]; IV-12-1 75 mg/kg, ♂, 162 h after withdrawal
  Weight after withdrawal compared with weight one day before withdrawal: 1.12 ± 0.09
[7]; [8]
  Increase (%) of weight: 2.9%
  Weight: 248.1 ± 42 g
[7]; IV-12-1 (75 mg/kg), 18 h after withdrawal
  Weight: 250.5 ± 39 g
[7]; [9]
  Increase (%) of weight: 2.2%
  Weight: 246.3 ± 37 g
[7]; IV-12-1 (75 mg/kg), 36 h after withdrawal
  Weight: 253.9 ± 38 g
[7]; [10]
  Increase (%) of weight: 4.3%
  Weight: 251.3 ± 37 g
[7]; [11]
  Increase (%) of weight: 3.3%
  Weight: 249.1 ± 36 g
[7]; IV-12-1 (75 mg/kg), 60 h after withdrawal
  Increase (%) of weight: 7.2%
[7]; [12]
  Increase (%) of weight: 4.8%
  Weight: 252.8 ± 37 g
[7]; IV-12-1 (75 mg/kg), 72 h after withdrawal
  Increase (%) of weight: 4.4%
[7]; [13]
  Increase (%) of weight: 9.4%
  Weight: 263.7 ± 40 g
[7]; [14]
  Increase (%) of weight: 6.8%
  Weight: 257.4 ± 39 g
[7]; [15]
  Increase (%) of weight: 5.4%
  Weight: 254.2 ± 43 g
[7]; [16]
  Increase (%) of weight: 11.4%
  Weight: 268.6 ± 42 g
[7]; [17]
  Increase (%) of weight: 8.5%
  Weight: 261.6 ± 40 g
[7]; [18]
  Increase (%) of weight: 8.0%
  Weight: 260.3 ± 40 g
[7]; [19]
  Increase (%) of weight: 14.4%
  Weight: 275.8 ± 41 g
[7]; [20]
  Increase (%) of weight: 11.3%
  Weight: 268.3 ± 41 g
[7]; [21]
  Increase (%) of weight: 9.8%
  Weight: 264.7 ± 42 g
[7]; [22]
  Increase (%) of weight: 15.7%
  Weight: 279.0 ± 44 g
[7]; [23]
  Increase (%) of weight: 12.4%
  Weight: 271.0 ± 44 g
[7]; [24]
  Increase (%) of weight: 11.7%
  Weight: 269.2 ± 45 g
[7]; IV-12-1 (75 mg/kg), before withdraw
  Weight: 241.1 ± 38 g
[7]; IV-12-2 100 mg/kg, ♀, 42 h after withdrawal
  Weight after withdrawal compared with weight one day before withdrawal: 1.01 ± 0.05
[7]; IV-12-2 100 mg/kg, ♀, 66 h after withdrawal
  Weight after withdrawal compared with weight one day before withdrawal: 1.01 ± 0.06
[7]; IV-12-2 100 mg/kg, ♀, 90 h after withdrawal
  Weight after withdrawal compared with weight one day before withdrawal: 1.02 ± 0.06
[7]; IV-12-2 100 mg/kg, ♀, 114 h after withdrawal
  Weight after withdrawal compared with weight one day before withdrawal: 1.02 ± 0.07
[7]; IV-12-2 100 mg/kg, ♀, 138 h after withdrawal
  Weight after withdrawal compared with weight one day before withdrawal: 1.04 ± 0.07
[7]; IV-12-2 100 mg/kg, ♀, 162 h after withdrawal
  Weight after withdrawal compared with weight one day before withdrawal: 1.04 ± 0.07
[7]; IV-12-2 100 mg/kg, ♂, 18 h after withdrawal
  Weight after withdrawal compared with weight one day before withdrawal: 0.99 ± 0.04
[7]; IV-12-2 100 mg/kg, ♂, 42 h after withdrawal
  Weight after withdrawal compared with weight one day before withdrawal: 1.00 ± 0.04
[7]; IV-12-2 100 mg/kg, ♂, 66 h after withdrawal
  Weight after withdrawal compared with weight one day before withdrawal: 1.00 ± 0.05
[7]; IV-12-2 100 mg/kg, ♂, 90 h after withdrawal
  Weight after withdrawal compared with weight one day before withdrawal: 1.00 ± 0.04
[7]; IV-12-2 100 mg/kg, ♂, 114 h after withdrawal
  Weight after withdrawal compared with weight one day before withdrawal: 1.01 ± 0.04
[7]; IV-12-2 100 mg/kg, ♂, 138 h after withdrawal
  Weight after withdrawal compared with weight one day before withdrawal: 1.03 ± 0.06
[7]; IV-12-2 100 mg/kg, ♂, 162 h after withdrawal
  Weight after withdrawal compared with weight one day before withdrawal: 1.04 ± 0.08
[7]; [25]
  Increase (%) of weight: 2.0%
  Weight: 259.8 ± 34 g
[7]; [26]
  Increase (%) of weight: 2.0%
  Weight: 259.8 ± 33 g
[7]; [27]
  Increase (%) of weight: 0.4%
  Weight: 255.9 ± 32 g
[7]; [28]
  Increase (%) of weight: 1.9%
  Weight: 259.5 ± 33 g
[7]; [29]
  Increase (%) of weight: 1.4%
  Weight: 258.5 ± 32 g
[7]; [30]
  Increase (%) of weight: 0.8%
  Weight: 256.8 ± 31 g
[7]; IV-12-2 (75 mg/kg), 60 h after withdrawal
  Weight: 259.6 ± 31 g
[7]; [31]
  Increase (%) of weight: 0.8%
  Weight: 256.8 ± 27 g
[7]; [32]
  Increase (%) of weight: 0.4%
  Weight: 255.7 ± 29 g
[7]; [33]
  Increase (%) of weight: 3.4%
  Weight: 263.6 ± 30 g
[7]; [34]
  Increase (%) of weight: 1.3%
  Weight: 258.2 ± 30 g
[7]; [35]
  Increase (%) of weight: 0.9%
  Weight: 257.1 ± 28 g
[7]; [36]
  Increase (%) of weight: 4.5%
  Weight: 266.3 ± 33 g
[7]; IV-12-2 (75 mg/kg), 114 h after withdrawal
  Increase (%) of weight: 2.1%
[7]; [37]
  Increase (%) of weight: 1.4%
  Weight: 258.3 ± 29 g
[7]; IV-12-2 (75 mg/kg), 132 h after withdrawal
  Weight: 272.6 ± 35 g
[7]; [38]
  Increase (%) of weight: 4.0%
  Weight: 264.9 ± 32 g
[7]; [39]
  Increase (%) of weight: 3.5%
  Weight: 263.6 ± 32 g
[7]; [40]
  Increase (%) of weight: 6.6%
  Weight: 271.5 ± 40 g
[7]; [41]
  Increase (%) of weight: 4.9%
  Weight: 267.2 ± 38 g
[7]; [42]
  Increase (%) of weight: 4.5%
  Weight: 266.3 ± 36 g
[7]; IV-12-2 (75 mg/kg), before withdraw
  Weight: 254.8 ± 32 g
